Source: US20240262856A1, “NOVEL SPINOSYN COMPOUNDS” (priority 2021, published 2024)
In brackets after ≈: the same amount, converted by molar mass. Where two headings read alike, the source gives them in different places.

Columns and labels:
[1] = UV-stability of 5 mM solutions in acetonitrile, remaining compound by HPLC; format: physicochemical; conditions: for share of remaining compound 0 h: start value for both aliquots; for Purity changing: 0 h to 10 h
Method: Synthesized spinosyn compounds were used to prepare 5 mM solutions in acetonitrile. The solution was divided in 2 aliquots and one aliquot was exposed to UV light at 254 nm and the other aliquot was incubated in the same conditions without UV light exposure. Quantities of remaining starting compounds were determined by HPLC after 0 h, 1 h, 5 h and 10 h.

[2] = test system: honey bees (Apis melifera carnica, Pollman 1879); experiment: Single dose acute oral toxicity test on adult worker honey bees; format: in vivo
Method: Toxicity of the compounds of this invention towards honey bees (Apis melifera carnica, Pollman 1879) was assessed in comparison with commercially available samples of spinosad (LGC (Dr. Ehrenstorfer); Product code: DRE-C16972830) and the naturally produced compound butenyl spinosyn alpha 1. Solutions of spinosyn compounds were prepared in 100 mM ammonium acetate, pH=5, and later diluted in 50% (500 g/L) sucrose solution in water to final concentrations. Two final concentrations were used for each compound, 7.76 μmol/L and 15.53 μmol/L.
Single dose acute oral toxicity tests were conducted on adult worker bees according to previously described standard methods (Medrzycki at el., (2013)). Each compound and condition were tested in two parallels. Briefly, each parallel experiment consisted of 5 cages with 20 honey bees per cage. […] After uptake of the solutions honey bees were supplied with standard 50% sucrose solution and observed at 24 h and 48 h and the number of dead and live bees was estimated. Ammonium acetate solution with pH 5 was used as the negative control.

[3] = test system: Ostrinia nubilalis larvae; experiment: Insecticide efficacy on corn leaves dipped in compound solution and infested with L1 larvae (Henderson-Tilton method); format: in vivo; conditions: for % Efficacy 3 days: 3 days post infestation; for % Efficacy 6 days: 6 days post infestation; for Emax: Ostrinia nubilalis; for insecticidal activity on Ostrinia nubilalis larvae (in words): compared with Spinosad / spinetoram
Method: Insecticide activities of the compounds of this invention were assessed in comparison with commercially available samples of spinosad (LGC (Dr. Ehrenstorfer); Product code: DRE-C16972830) and spinetoram (LGC (Dr. Ehrenstorfer); Product code: DRE-C16972770) Solutions of spinosyn compounds were prepared by adding 0.05% Tween 80, lowering pH to 5.95 and sonicating. Two concentrations of each compound were used, 0.1 μg/mL and 0.3 μg/mL, with each condition tested in four parallels.
Freshly collected corn leaves were dipped into the prepared solutions. After dipping leaves were left to dry at room temperature for 1 hour. Each dry leaf was then infested with 4 larvae (development stage L1), and the experimental device was incubated at 21° C.-23° C. for 24 h in order to optimize insect development. At two timings post infestation (3 days and 6 days), the insecticide efficacy is evaluated from the number of living larvae using the Henderson-Tilton method. Untreated control was integrated for normalization and validation of larvae health.

Kinetic solubility assay = format: physicochemical; conditions: 24 hours at room temperature (25±2° C.)
Method: Solubility of the compounds of the invention was assessed using kinetic solubility assay and compared to solubility of butenyl spinosyn. Stock solutions of spinosyn compounds were prepared in DMSO at 10 mM concentration). 10 uL of the stock solutions were added into 490 of in K.S. 5.4 buffer of pH 5.4 (80 mM phosphoric acid, acetic acid, boric acid buffer, adjusted the pH to pH 5.4 with 1 N HCl and 1N NaOH) or K.S. 7.4 buffer with pH of 7.4 (80 mM phosphoric acid, acetic acid, boric acid buffer, adjusted the pH to pH 7.4 with 1 N HCl and 1N NaOH). The solutions were incubated with shaking at room temperature (25±2° C.) for 24 hours. 200 uL of each solution were then transferred into a new MultiScreen filter plate (Membrane of polycarbonate) and filtered by millipore vacuum manifold, and the filtrate was collected. The concentrations of tested compounds in the filtered samples were analyzed by HPLC analysis calibrated by a standard curve generated by injection of 3 standard solutions of the relevant compound with concentrations of 1, 20, 200 μM.

[4] = test system: honey bees (Apis melifera carnica, Pollman 1879); conditions: previously established oral LD50 for honey bee; cited from earlier work
[5] = 0.078 nmol/bee oral single dose, 24 h after application
[6] = 0.078 nmol/bee oral single dose, 48 h after application
[7] = 0.155 nmol/bee oral single dose, 24 h after application
[8] = 0.155 nmol/bee oral single dose, 48 h after application
[9] = 72 h, read-out: % Efficacy 3 days, dose 0.1 μg a.i./ml, 3 days post infestation
[10] = 72 h, read-out: % Efficacy 3 days, dose 0.3 μg a.i./ml, 3 days post infestation
[11] = 144 h, read-out: % Efficacy 6 days, dose 0.1 μg a.i./ml, 6 days post infestation
[12] = 144 h, read-out: % Efficacy 6 days, dose 0.3 μg a.i./ml, 6 days post infestation
[13] = 25 °C, aqueous buffer, kinetic from dmso stock, K.S. 5.4 buffer pH 5.4, dose conc 200 μM, read-out: Kinetic Solubility pH = 5.4
[14] = 25 °C, aqueous buffer, kinetic from dmso stock, K.S. 7.4 buffer pH 7.4, dose conc 200 μM, read-out: Kinetic Solubility pH = 7.4

| Compound | share of remaining compound 0 h [1] | Purity changing ([1]; under UV light at 254 nm) | share of remaining compound 1 h ([1]; under UV light at 254 nm) | share of remaining compound 5 h ([1]; under UV light at 254 nm) | share of remaining compound 10 h ([1]; under UV light at 254 nm) | Purity changing ([1]; without UV) | share of remaining compound 1 h ([1]; without UV) | share of remaining compound 5 h ([1]; without UV) | share of remaining compound 10 h ([1]; without UV) | % of surviving honey bees [2, 5] | % of surviving honey bees [2, 6] | % of surviving honey bees [2, 7] | % of surviving honey bees [2, 8] | % Efficacy 3 days ([3]; dose 0.1 μg a.i./ml) | % Efficacy 6 days ([3]; dose 0.1 μg a.i./ml) | % Efficacy 3 days ([3]; dose 0.3 μg a.i./ml) | % Efficacy 6 days ([3]; dose 0.3 μg a.i./ml) | solubility kinetic at 24 h (Kinetic solubility assay; [13]) | solubility kinetic at 24 h (Kinetic solubility assay; [14]) | other results |
| --- | --- | --- | --- | --- | --- | --- | --- | --- | --- | --- | --- | --- | --- | --- | --- | --- | --- | --- | --- | --- |
| CCC=CC1CCCC(OC2CCC(N(C)C)C(C)O2)C(C)C(=O)C2=CC3C(C=CC4CC(OC5OC(C)C(OC)C(OC)C5OC)CC43)C2CC(=O)O1 (stereo not drawn) [Butenyl spinosyn, butenyl spinosyn α1, reference compound] | 90.0% | −30.4% | 88.6% | 70.9% | 59.6% | −0.6% | 90.6% | 90.7% | 89.4% | 57% | 37% | 32% | 6% | 33% | 56% | 79% | 100% |  |  | toxicity to honey bees in acute oral toxicity test (in words) ([2]; compared to the derivatives provided by this invention): higher toxicity to honey bees; solubility kinetic at 24 h (Kinetic solubility assay; K.S. 5.4 buffer pH 5.4, dose conc 200 μM, read-out: Kinetic Solubility pH = 5.4): 183.17 µM (≈ 139 µg/mL); solubility kinetic at 24 h (Kinetic solubility assay; K.S. 7.4 buffer pH 7.4, dose conc 200 μM, read-out: Kinetic Solubility pH = 7.4): 3.52 µM (≈ 2.67 µg/mL) |
| CC/C=C/[C@H]1CCC[C@H](OC2CCC(N(C)C)C(C)O2)[C@@H](C)C(=O)C2=C[C@@H]3[C@@H](C=C[C@]4(O)C[C@@H](OC5OC(C)C(OC)C(OC)C5OC)C[C@@H]34)[C@@H]2CC(=O)O1 (stereo partly drawn) [Compound A1, 7-hydroxy butenyl spinosyn α1] | 90.7% | −38.5% | 86.6% | 71.3% | 52.2% | +0.2% | 90.7% | 90.8% | 90.9% |  |  |  |  |  |  |  |  | 192 µM (≈ 149 µg/mL) | 187 µM (≈ 144 µg/mL) | Emax [3, 9]: 2%; Emax [3, 10]: 15%; Emax [3, 11]: 2%; Emax [3, 12]: 19% |
| CC/C=C/[C@H]1CCC[C@H](OC2CCC(N(C)C)C(C)O2)[C@@H](C)C(=O)C2=C[C@@H]3[C@@H](C=C[C@]4(OC)C[C@@H](OC5OC(C)C(OC)C(OC)C5OC)C[C@@H]34)[C@@H]2CC(=O)O1 (stereo partly drawn) [Compound H1, 7-methoxy butenyl spinosyn α1] | 96.0% | −22.5% | 95.6% | 87.5% | 73.5% | +0.7% | 96.5% | 96.9% | 96.7% |  |  |  |  |  |  |  |  | 183 µM (≈ 144 µg/mL) | 77.1 µM (≈ 60.8 µg/mL) | Emax [3, 9]: 27%; Emax [3, 10]: 58%; Emax [3, 11]: 89%; Emax [3, 12]: 100%; insecticidal activity on Ostrinia nubilalis larvae (in words) [3]: extremely potent insecticidal activity |
| CC[C@H]1CCC[C@H](OC2CCC(N(C)C)C(C)O2)[C@@H](C)C(=O)C2=C[C@@H]3[C@@H](C=C[C@]4(OC)C[C@@H](OC5OC(C)C(OC)C(OC)C5OC)C[C@@H]34)[C@@H]2CC(=O)O1 (stereo partly drawn) [Compound H1a] |  |  |  |  |  |  |  |  |  |  |  |  |  | 15% | 41% | 64% | 93% |  |  | insecticidal activity on Ostrinia nubilalis larvae (in words) [3]: lower insecticidal activity |
| CC/C=C/[C@H]1CCC[C@H](OC2CCC(N(C)C)C(C)O2)[C@@H](C)C(=O)C2=C[C@@H]3[C@@H](C=C[C@]4(OCC)C[C@@H](OC5OC(C)C(OC)C(OC)C5OC)C[C@@H]34)[C@@H]2CC(=O)O1 (stereo partly drawn) [Compound H2, 7-ethoxy butenyl spinosyn al] | 93.2% | −53.5% | 87.6% | 67.8% | 39.7% | −0.9% | 93.6% | 93.7% | 92.3% |  |  |  |  |  |  |  |  | 166 µM (≈ 133 µg/mL) | 7.68 µM (≈ 6.16 µg/mL) |  |
| CC/C=C/[C@H]1CCC[C@H](OC2CCC([N+](C)(C)COC(=O)C(C)(C)C)C(C)O2)[C@@H](C)C(=O)C2=C[C@@H]3[C@@H](C=CC4(OC)C[C@@H](OC5OC(C)C(OC)C(OC)C5OC)C[C@@H]34)[C@@H]2CC(=O)O1 (stereo partly drawn) [Compound J1A-H1] |  |  |  |  |  |  |  |  |  | 98% | 73% | 86% | 26% |  |  |  |  |  |  |  |
| CC/C=C/[C@H]1CCC[C@H](OC2CCC([N+](C)(C)COC(=O)OC(C)C)C(C)O2)[C@@H](C)C(=O)C2=C[C@@H]3[C@@H](C=CC4(OC)C[C@@H](OC5OC(C)C(OC)C(OC)C5OC)C[C@@H]34)[C@@H]2CC(=O)O1 (stereo partly drawn) [Compound J7-H1] |  |  |  |  |  |  |  |  |  | 87% | 69% | 78% | 30% |  |  |  |  |  |  |  |
| spinetoram [Spinoteram, reference compound] |  |  |  |  |  |  |  |  |  |  |  |  |  | 58% | 81% | 85% | 96% |  |  |  |
| spinosad [SPN, reference compound] |  |  |  |  |  |  |  |  |  |  |  |  |  | 25% | 46% | 63% | 100% |  |  | LD50 [4]: 0.057 μg/bee |
